This is an account of results in patent US7192956B2, “Methods of treating hormone-related conditions using cyclothiocarbamate derivatives” (Wyeth, priority 2002, dated 2007).

In test [1] the target is T1, androgen receptor (AR) (Mus musculus, UniProt P19091).
T1 construct: the L929 cells which express the AR but not the PR; endogenous in cells; host or cells: L929 cells
T1 sequence (P19091 1-899): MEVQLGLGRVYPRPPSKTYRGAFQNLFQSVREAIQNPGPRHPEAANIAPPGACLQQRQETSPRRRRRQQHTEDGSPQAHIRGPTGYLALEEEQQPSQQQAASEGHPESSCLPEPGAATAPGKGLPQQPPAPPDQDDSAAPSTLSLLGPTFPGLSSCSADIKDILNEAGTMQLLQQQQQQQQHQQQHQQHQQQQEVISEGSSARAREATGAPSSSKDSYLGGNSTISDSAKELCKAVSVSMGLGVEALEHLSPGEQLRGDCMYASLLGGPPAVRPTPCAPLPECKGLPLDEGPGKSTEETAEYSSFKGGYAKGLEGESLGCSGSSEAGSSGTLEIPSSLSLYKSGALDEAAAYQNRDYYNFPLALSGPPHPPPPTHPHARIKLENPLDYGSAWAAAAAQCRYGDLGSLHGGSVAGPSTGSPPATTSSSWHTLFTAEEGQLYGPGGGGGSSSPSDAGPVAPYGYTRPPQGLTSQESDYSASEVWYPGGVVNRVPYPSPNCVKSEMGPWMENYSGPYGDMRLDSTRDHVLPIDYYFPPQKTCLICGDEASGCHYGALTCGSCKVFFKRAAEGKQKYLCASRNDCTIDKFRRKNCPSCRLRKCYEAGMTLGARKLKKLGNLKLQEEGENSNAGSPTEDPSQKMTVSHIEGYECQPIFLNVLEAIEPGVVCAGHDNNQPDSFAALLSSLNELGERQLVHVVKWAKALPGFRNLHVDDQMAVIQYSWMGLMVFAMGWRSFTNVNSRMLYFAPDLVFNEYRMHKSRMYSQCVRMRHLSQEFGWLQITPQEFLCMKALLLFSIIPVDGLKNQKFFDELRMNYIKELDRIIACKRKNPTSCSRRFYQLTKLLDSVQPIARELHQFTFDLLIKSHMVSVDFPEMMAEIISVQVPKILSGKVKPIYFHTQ
The test is described as follows: Anti-androgenic (AR antagonistic) activity, PRE-tk-luciferase reporter in L929 cells co-treated with DHT. Format: cell-based. Conditions: co-treated with 3 nM DHT. On the procedure: (§1) The androgen receptor (AR) agonistic and antagonistic activity of the compositions of the invention in the L929 cells which express the AR but not the PR was evaluated as described in Zhang et al., Steroids, 65(10–11): 637–643 (October–November 2000).
(§2) Cells were plated in 96-well plates at 25,000 cells/well in DMEM (Bio Whittaker) with 10% (v/v) fetal bovine serum (FBS). The next day, cells were infected with the adenovirus PRE-tk-luciferase reporter construct (2×10^9 pfu/ml particles) and kept in DMEM containing 10% charcoal stripped FBS for an additional 24 hours. […] To test the anti-androgenic activity, cells were co-treated with 3 nM DHT. Luciferase activity was measured 24 hours following the treatment.

For test [2], the target named is T1, androgen receptor (AR). The test is described as follows: AR agonistic activity, PRE-tk-luciferase reporter in L929 cells. It counts as cell-based. The following applies: at the maximum concentration tested (i.e., 10 nM). On the procedure:
as §1, §2

Structures are written as SMILES. pIC50: −log10 of the molar value.

Turning to `Cn1c(C#N)ccc1-c1ccc2c(c1)C(C)(C)OC(=S)N2` [5-(4,4-dimethyl-2-thioxo-1,4-dihydro-2H-3,1-benzoxazin-6-yl)-1-methyl-1H-pyrrole-2-carbonitrile], the pIC50 (commonly the negative decadic logarithm of the IC50, by convention in mol/L) at androgen receptor (AR) [1] (L929 cells expressing AR but not PR, PRE-tk-luciferase reporter, luciferase measured 24 hours after treatment) was 6.96. Also, the antagonistic activity entry at androgen receptor (AR) [1] (L929 cells, nine point dose response) is “significant antagonistic activity”. Besides, the agonistic activity result on androgen receptor (AR) [2] is “only marginal agonistic activity”.
